According to US11591323B2, “Muscarinic agonists as non-steroidal and non-opioid analgesics and methods of use thereof” (Barry University, priority 2019, dated 2023):
Like-named read-outs stand apart in the source and are kept apart here.

Experiments:
Parameters in all cases: host or cells: CHO cells, stably transfected
[1] = biological target: T1, M5 muscarinic receptor (Homo sapiens, UniProt P08912); experiment: accumulation of IPX, M5 CHO cells (M5Gq); format: cell-based; conditions: M5 (↑IPX), preferential response
T1 sequence (P08912 1-532): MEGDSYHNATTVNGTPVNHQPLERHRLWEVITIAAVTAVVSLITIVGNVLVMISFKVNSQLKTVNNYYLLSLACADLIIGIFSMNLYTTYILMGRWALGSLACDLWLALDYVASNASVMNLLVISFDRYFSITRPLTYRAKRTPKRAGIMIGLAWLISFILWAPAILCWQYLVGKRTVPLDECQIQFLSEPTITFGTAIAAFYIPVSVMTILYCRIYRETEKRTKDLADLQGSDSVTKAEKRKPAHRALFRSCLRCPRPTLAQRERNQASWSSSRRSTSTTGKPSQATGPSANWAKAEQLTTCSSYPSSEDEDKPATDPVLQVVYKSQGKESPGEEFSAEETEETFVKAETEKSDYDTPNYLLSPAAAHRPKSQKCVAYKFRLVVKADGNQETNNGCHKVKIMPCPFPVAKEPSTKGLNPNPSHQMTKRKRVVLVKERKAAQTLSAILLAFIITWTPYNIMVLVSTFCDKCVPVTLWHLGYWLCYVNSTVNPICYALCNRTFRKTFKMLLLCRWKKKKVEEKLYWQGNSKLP

[2] = biological target: M3 muscarinic receptor (Homo sapiens, UniProt P20309); experiment: accumulation of IPX, M3 CHO cells (M3Gq); format: cell-based; conditions: M3 (↑IPX), preferential response
[3] = biological target: T2, M4 muscarinic receptor (Homo sapiens, UniProt P08173); experiment: inhibition of forskolin-stimulated cAMP, M4 CHO cells (M4Gi); format: cell-based; conditions: M4 (↓cAMP), preferential response
T2 sequence (P08173 1-479): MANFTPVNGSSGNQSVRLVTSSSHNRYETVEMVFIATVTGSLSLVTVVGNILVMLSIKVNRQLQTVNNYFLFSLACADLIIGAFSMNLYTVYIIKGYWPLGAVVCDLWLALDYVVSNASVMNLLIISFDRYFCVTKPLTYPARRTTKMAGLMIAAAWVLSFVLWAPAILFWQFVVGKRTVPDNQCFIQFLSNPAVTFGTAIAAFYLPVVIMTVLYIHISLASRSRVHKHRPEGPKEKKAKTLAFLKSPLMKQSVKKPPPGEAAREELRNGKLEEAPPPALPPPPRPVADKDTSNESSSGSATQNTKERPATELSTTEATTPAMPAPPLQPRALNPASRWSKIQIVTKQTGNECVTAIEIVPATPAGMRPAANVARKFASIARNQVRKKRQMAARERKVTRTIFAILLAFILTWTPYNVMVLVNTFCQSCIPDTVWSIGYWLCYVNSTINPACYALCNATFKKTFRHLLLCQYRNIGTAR

[4] = biological target: T3, M1 muscarinic receptor (Homo sapiens, UniProt P11229); experiment: [3H]NMS competition binding, M1 CHO membranes; conditions: competition with 1 nM [3H]NMS; read-out: Inhibition constants (Ki) as negative logarithms, M1 (converted)
T3 sequence (P11229 1-460): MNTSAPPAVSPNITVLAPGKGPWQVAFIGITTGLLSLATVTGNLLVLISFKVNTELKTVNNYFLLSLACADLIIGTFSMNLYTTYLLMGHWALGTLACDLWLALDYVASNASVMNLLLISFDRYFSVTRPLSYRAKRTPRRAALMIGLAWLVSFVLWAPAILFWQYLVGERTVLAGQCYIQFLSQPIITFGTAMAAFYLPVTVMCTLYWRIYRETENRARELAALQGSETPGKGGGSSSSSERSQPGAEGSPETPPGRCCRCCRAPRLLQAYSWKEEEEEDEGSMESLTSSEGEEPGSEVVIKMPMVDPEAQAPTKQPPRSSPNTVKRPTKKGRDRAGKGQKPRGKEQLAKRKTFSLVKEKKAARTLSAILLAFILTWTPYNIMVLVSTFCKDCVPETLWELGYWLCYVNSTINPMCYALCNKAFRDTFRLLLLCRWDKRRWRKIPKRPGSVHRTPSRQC

[5] = biological target: T4, M2 muscarinic receptor (Homo sapiens, UniProt P08172); experiment: [3H]NMS competition binding, M2 CHO membranes
T4 sequence (P08172 1-466): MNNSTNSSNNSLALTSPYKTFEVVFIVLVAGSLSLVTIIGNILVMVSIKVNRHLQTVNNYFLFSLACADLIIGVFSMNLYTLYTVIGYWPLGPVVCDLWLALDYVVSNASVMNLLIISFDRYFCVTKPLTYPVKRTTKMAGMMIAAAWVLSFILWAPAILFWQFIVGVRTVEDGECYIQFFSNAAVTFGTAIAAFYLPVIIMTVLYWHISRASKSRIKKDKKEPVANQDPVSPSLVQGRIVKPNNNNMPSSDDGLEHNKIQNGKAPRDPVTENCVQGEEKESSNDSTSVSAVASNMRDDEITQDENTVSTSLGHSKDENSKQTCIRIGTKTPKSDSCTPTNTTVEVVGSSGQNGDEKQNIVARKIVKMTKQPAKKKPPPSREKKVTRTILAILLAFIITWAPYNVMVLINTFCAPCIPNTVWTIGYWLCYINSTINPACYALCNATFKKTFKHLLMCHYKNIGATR

[6] = biological target: T2, M4 muscarinic receptor; experiment: [3H]NMS competition binding, M4 CHO membranes
[7] = biological target: T1, M5 muscarinic receptor; experiment: [3H]NMS competition binding, M5 CHO membranes; conditions: competition with 1 nM [3H]NMS; read-out: Inhibition constants (Ki) as negative logarithms, M5 (converted)
[8] = Table 7, operational model, read-out: pKA (converted)
[9] = Table 7, read-out: pEC50 (converted)
[10] = relative to carbachol, Tables 2, 3, 7

Chain of M3 muscarinic receptor (P20309 whole entry): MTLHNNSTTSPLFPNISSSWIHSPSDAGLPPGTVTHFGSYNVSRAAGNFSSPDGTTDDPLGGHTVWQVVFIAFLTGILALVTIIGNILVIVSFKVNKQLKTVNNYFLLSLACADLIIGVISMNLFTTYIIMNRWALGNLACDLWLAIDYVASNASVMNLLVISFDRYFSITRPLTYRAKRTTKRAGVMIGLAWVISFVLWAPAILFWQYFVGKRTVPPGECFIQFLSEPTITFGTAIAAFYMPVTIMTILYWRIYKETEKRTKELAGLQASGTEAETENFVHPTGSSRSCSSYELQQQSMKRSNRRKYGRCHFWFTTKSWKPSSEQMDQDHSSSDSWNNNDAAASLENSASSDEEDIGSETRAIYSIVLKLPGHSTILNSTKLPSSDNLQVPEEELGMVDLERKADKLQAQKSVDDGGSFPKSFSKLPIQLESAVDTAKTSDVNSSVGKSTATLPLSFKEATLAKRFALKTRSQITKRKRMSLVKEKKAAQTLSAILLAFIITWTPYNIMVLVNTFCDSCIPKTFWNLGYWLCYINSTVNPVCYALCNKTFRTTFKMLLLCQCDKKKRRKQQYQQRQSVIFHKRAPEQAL

E′MAX ([1]; Table 7): 1.7 ± 0.1 fold over basal | τ ([1]; Table 7, operational efficacy): 0.04 ± 0.01 | Kd [1, 8]: 15.8 µM | EC50 [1, 9]: 15.1 µM | RAi [1, 10]: 0.0009 ± 0.0005 | Δlog(τ/KA) ([1]; to carbachol, Tables 2, 3, 7): 3.04 ± 0.66 | E′MAX ([2]; Table 7): 2.0 ± 0.2 fold over basal | τ ([2]; Table 7, operational efficacy): 0.04 ± 0.01 | Kd [2, 8]: 15.8 µM | EC50 [2, 9]: 31.6 µM | RAi [2, 10]: 0.0006 ± 0.0001 | Δlog(τ/KA) ([2]; to carbachol, Tables 2, 3, 7): 3.24 ± 0.34 | Emax ([3]; CHO, Table 7, read-out: E′MAX): 25 ± 2% | τ ([3]; Table 7, operational efficacy): 0.39 ± 0.04 | Kd [3, 8]: 12.6 µM | EC50 [3, 9]: 9.77 µM | RAi [3, 10]: 0.0020 ± 0.0002 | Δlog(τ/KA) ([3]; to carbachol, Tables 2, 3, 7): 2.51 ± 0.20 | Ki [4]: 25.1 µM | Ki ([5]; competition with 1 nM [3H]NMS, read-out: Inhibition constants (Ki) as negative logarithms, M2 (converted)): 10.2 µM | Ki ([5]; high-affinity fraction of binding to M2, read-out: high affinity binding): ~0.03 µM | Ki ([6]; competition with 1 nM [3H]NMS, read-out: Inhibition constants (Ki) as negative logarithms, M4 (converted)): 28.8 µM | binding that occurred with high affinity ([6]; fraction of binding to M4): ~10% | Ki ([6]; high-affinity fraction of binding to M4, read-out: high affinity binding): ~0.03 µM | Ki ([6]; high-affinity fraction, M4, read-out: pKI of high affinity binding (converted)): 0.02 µM | Ki [7]: 24 µM
Compound: Cc1ccc(CN2CC=CCC2)s1.Cl [Compound 6B, 1-[(5-methylthiophen-2-yl)methyl]-1,2,3,6-tetrahydropyridin-1-ium chloride]
